In patent publication US12636378B2, “Targeted antigen delivery system and uses thereof” (SRI International, priority 2020, dated 2026):
Entries after “also recorded” stand apart in the source; their conditions may differ. Like-named read-outs stand apart in the source and are kept apart here. No end group written: not given here.

How the values were obtained:
[1] = test system: breast cancer lines (MCF-7, MDA-MB-231and 4T1); test: Binding to breast cancer lines; assay type: cell-based
Source text: (§1) The final optimized SRI_MGS5_V1 peptide, SRI_MGS5_V2, has the following characteristics.

NSCLC lines = test: Flow cytometry binding to NSCLC lines; assay type: cell-based, human
Source text: as §1

[2] = test system: glioma cell line (GL-261); test: Flow cytometry binding and internalization in GL261 cells; assay type: cell-based, mouse
Source text: as §1

[3] = test system: pancreatic cancer line (Pan02); test: Flow cytometry binding and internalization in Pan02 cells; assay type: cell-based, mouse
Source text: as §1

Pan02 cells = settings: fluorescent dye-labelled peptide
H1993 cells [4] = test system: H1993 cells
[5] = test system: 4T1 cells implanted in mammary fat pads; settings: nIR dye-labelled peptide
[6] = test system: subcutaneous H1993 NSCLC tumor; test: NIR imaging of dye-labeled peptides in mice with subcutaneous H1993 tumor; assay type: in vivo; settings: for tumor accumulation / tumor targeting: Alexa Fluor 750 conjugate, tail vein injection
Procedure: The peptides were conjugated to Alexa Fluor 750 dye and […] injected intravenously via the tail vein into mice bearing a subcutaneous H1993 NSCLC tumor on their right flank.
SRI_MGS5_V2 and parental SRI_MGS5_V1 were labeled with the near-infrared dye Alexa Fluor 750 for imaging. […] For example, SRI_MGS5_V2 has 3-fold lower signal in the lung compared to SRI_MGS5_V1. […] Importantly, the corresponding nonacetylated versions of each peptide were evaluated as well.

4T1 cells = test: Quantitative flow cytometry binding and internalization in 4T1 cells; assay type: cell-based, mouse
[7] = test system: panel of cancer cell lines; test: Binding in a panel of cancer cell lines; assay type: cell-based
H1993 NSCLC cells = test: Confocal microscopy, co-localization of peptide with autophagic vesicles; assay type: cell-based, human; settings: 100 nM
Procedure: FIGS. 7A-7C show an example of co-localization of SRI_MGS5_V2 peptides with autophagic vesicles (A) H1993 cells treated with 100 nM of SRI_MGS5_V1 peptide (panel A) and optimized SRI_MGS_V2 (panels B and C) conjugated with Alexa Fluor 647 (Red). Autophagosomes are stained with LC3B antibody (Green). The regions corresponding to co-localization of the peptide and autophagic vesicles are shown in yellow.
(§2) Therefore, accumulation in autophagosomes is a necessary component for success of this immunotherapy.

[8] = test system: GL261 cells implanted in the brain; settings: fluorescent dye-labelled peptide
LLC1 cells [9] = test: Co-culture assay, liposome treated LLC1 cells, cytokine ELISA; assay type: cell-based, murine
Procedure: TALL treated LLC1 cells were co-cultured with HLA-A2 positive PBMCs and culture supernatants were analyzed for TNF-α a secretion. […] Concentration of all liposomes used in this assay corresponded to ≈4.5 mg/ml of phosphatidyl choline. Free H250 peptide control is incubated at 5 μmol/L.
TALL treated LLC1 cells were co-cultured with HLA-A2 positive PBMCs and culture supernatants were analyzed for IFN-γ secretion. […] Concentration of all liposomes used in this assay corresponded to ≈4.5 mg/ml of phosphatidyl choline. Free H250 peptide control is incubated at 5 μmol/L.
(§3) The liposomes were loaded with the H250 antigenic peptide and SRI_MGS5_V2 or SRI_MGS5_V1 was conjugated to the external face of the liposome via maleimide chemistry. The liposomes were incubated with H1993 cells followed by co-culture with peripheral blood mononuclear cells (PBMCs) from an anonymous donor that is haplotype HLA A2+ and vaccinated against measles. […] More experiments testing different liposome variants and assessing TNF-α and INF-γ in co-culture were performed. […] The same experiments were completed using mouse LLC1 cells as the antigen presenting cells and lymph node lymphocytes (LNL) from C57B1/6 mice that had been vaccinated against HA.

H358 cells = test: Quantitative flow cytometry uptake assay, H358; assay type: cell-based, human
Procedure: H358 cell line data has been not included in FIG. 6 for clarity due to differences in the Y axis.
(§4) A quantitative flow cytometry assay was performed that measures the average number of molecules of peptide internalized per cell. […] The number of molecules internalized ranges from 1×10^5 molecules/cell for H358 cells to 8×10^5 for H1993 cells, corresponding to intracellular concentrations of 100-800 nM. The rate of uptake at 6 hours is not saturated and it appears that peptide continues to enter the cell past this time (FIG. 5 and FIG. 6). This indicates either high receptor numbers which have not yet saturated or rapid recycling of the receptor that allows for continual delivery, reaching high intracellular concentrations of the peptide.

[10] = test system: normal control human lung epithelial cell line (HBEC); test: Binding to normal lung epithelial cells; assay type: cell-based
Source text: as §1

H1993 cells [11] = test: Co-culture assay, liposome treated H1993 cells with HLA-A2 positive PBMCs, cytokine ELISA; assay type: cell-based, human
Procedure: TALL treated H1993 cells were co-cultured with HLA-A2 positive PBMCs and culture supernatants were analyzed for TNF-α secretion. Concentration of all liposomes used in this assay corresponded to ≈4.5 mg/ml of phosphatidyl choline. Free H250 peptide control is incubated at 5 μmol/L.
TALL treated H1993 cells were co-cultured with HLA-A2 positive PBMCs and culture supernatants were analyzed for IFNγ secretion. Concentration of all liposomes used in this assay corresponded to ≈4.5 mg/ml of phosphatidyl choline. Free H250 peptide control is incubated at 5 μmol/L.
as §3

H1993 cells [12] = test: Quantitative flow cytometry uptake assay, H1993; assay type: cell-based, human
Procedure: as §4

[13] = test system: three human NSCLC cell lines; test: Quantitative flow cytometry uptake assay, NSCLC cell lines; assay type: cell-based
Procedure: Uptake is represented as an average number of peptides per cell. Error bars are smaller than the symbol for some points.
as §4

LLC1 tumors = settings: 15 μg I.V., Alexa Fluor 750 conjugate, 72 hours
Procedure: The LLC1 tumors were grown until palpable (≈500 mm^3) at which point mice were treated I.V. with 15 μg of SRI_MGS5_V2 conjugated to Alexa Fluor 750. Images were taken daily for 72 hours, after which the animal was sacrificed, and its organs were assessed to determine localization of the targeting peptide.

LLC1 cells [14] = test: Confocal microscopy, autophagic vesicles in LLC1 cells; assay type: cell-based, mouse
Source text: as §2

[15] = test system: Multiple Different Cancer Types; test: Functional presentation of antigenic peptide in multiple cancer types; assay type: cell-based
Source text: Treatment groups: A—MGS5_V2 Targeted Liposome Loaded with H250 Antigen; B—Positive Control: Cells Pulsed with Free H250 Antigen; C—No MGS on Liposome Loaded with H250 Antigen; D—Blank Liposomes—no H250 Antigen.

[16] = HLA A*02:01 patients; cited from earlier work
[17] = Physicochemical properties of peptides (hydrophobicity, solubility, stability)
cancer cells = settings: cited from earlier work
[18] = test system: normal control human lung epithelial cell line (HBEC); settings: cited from earlier work

Question: With “(CH3CO-LQWRRNFGVWARYRL-PEG11)2K-X (not fully specified; N-acetyl, PEG11, dimerized on lysine core, tag X; targeting sequence) [SRI_MGS5_V2]” as the substance, how does the “binding to breast cancer lines” value [1] read?
Answer: The value was “shown to bind; also recorded: binds”.

Question: And the “binding to NSCLC lines compared to parental SRI_MGS5_V1” value (NSCLC lines)?
Answer: Its value is “greater binding affinity; also recorded: increased binding”.

Question: What about the “binding (and internalization) in GL261 cells” value [2] of the same substance?
Answer: Its value is “shown to bind; also recorded: binds”.

Question: What about the “binding (and internalization) in GL261 cells” value ([2]; listed as MGS5_V2) of the same substance?
Answer: Its value is “concentration dependent binding and internalization”.

Question: And the “binding (and internalization) in Pan02 cells” value [3]?
Answer: The value was “shown to bind; also recorded: binds”.

Question: And the “binding (and internalization) in Pan02 cells” value ([3]; listed as MGS5_V2)?
Answer: Its value is “concentration dependent binding and internalization”.

Question: What about the “tumor localization, orthotopic Pan02” value (Pan02 cells) of the same substance?
Answer: The value was “homes to tumors”.

Question: What about the “tumor localization, orthotopic Pan02” value (Pan02 cells; listed as MGS5_V2) of the same substance?
Answer: Its value is “localized in the tumor”.

Question: What about the cell viability (H1993 cells [4]; 72 hours, concentrations as high as 250 μM) of the same substance?
Answer: The cell viability was “No significant loss of viability”.

Question: What about the toxicity of uptake (H1993 cells [4]; H1993 cells) of the same substance?
Answer: Its toxicity of uptake is “not toxic”.

Question: And the “tumor localization, orthotopic 4T1” value [5]?
Answer: The value was “homes to tumors”.

Question: What about the “tumor localization, orthotopic 4T1” value ([5]; listed as MGS5_V2) of the same substance?
Answer: Its value is “localized within the tumors”.

Question: And the “tumor accumulation / tumor targeting” value [6]?
Answer: Its value is “accumulate specifically”.

Question: And the “non-specific accumulation in the lung and other organs vs acetylated SRI_MGS5_V1” value ([6]; ex vivo imaging at 72 H)?
Answer: The value was “reduced non-specific accumulation”.

Question: What about the “less signal in the kidneys compared to SRI_MGS5_V1” value ([6]; ex vivo, 72 H) of the same substance?
Answer: The value was 2.2 fold.

Question: What about the “extent of tumor uptake, V1 versus V2” value ([6]; mouse, in vivo) of the same substance?
Answer: Its value is “roughly the same degree”.

Question: And the “less signal in the liver compared to SRI_MGS5_V1” value ([6]; mouse, in vivo)?
Answer: The value was 1.6 fold.

Question: What about the “lower signal in the lung compared to SRI_MGS5_V1” value ([6]; mouse, in vivo) of the same substance?
Answer: The value was 3 fold.

Question: And the “time to localization at the tumor site” value ([6]; mouse, in vivo)?
Answer: The value was no more than 24 h.

Question: What about the tumor signal maintained ([6]; mouse, in vivo) of the same substance?
Answer: Its tumor signal maintained is 72 h.

Question: And the “binding and internalization in 4T1 cells” value (4T1 cells)?
Answer: The value was “concentration dependent binding and internalization”.

Question: And the “binding in a panel of cancer cell lines” value [7]?
Answer: Its value is “improved binding”.

Question: What about the “accumulation in autophagic vesicles compared to parental MGS5_V1” value (H1993 NSCLC cells) of the same substance?
Answer: Its value is “much greater extent”.

Question: And the “tumor localization, orthotopic GL261” value [8]?
Answer: Its value is “homes to tumors”.

Question: What about the “tumor localization, orthotopic GL261” value ([8]; listed as MGS5_V2) of the same substance?
Answer: Its value is “targets GL261 cells”.

Question: And the “presentation of encapsulated immunogenic peptide in HLA class I molecules (IFN-γ ELISA)” value (LLC1 cells [9])?
Answer: Its value is “facilitates presentation”.

Question: And the “presentation of encapsulated immunogenic peptide in HLA class I molecules (TNF-α ELISA)” value (LLC1 cells [9])?
Answer: The value was “facilitates presentation”.

Question: What about the “number of molecules internalized” value (H358 cells) of the same substance?
Answer: The value was 1×10^5 molecules/cell.

Question: What about the “discrimination between NSCLC cancer and normal cells in the lung” value [10] of the same substance?
Answer: Its value is “high discriminating power”.

Question: What about the “presentation of encapsulated immunogenic peptide in HLA class I molecules (IFNγ ELISA)” value (H1993 cells [11]) of the same substance?
Answer: The value was “facilitates presentation”.

Question: And the “presentation of encapsulated immunogenic peptide in HLA class I molecules (TNF-α ELISA)” value (H1993 cells [11])?
Answer: The value was “facilitates presentation”.

Question: And the “number of molecules internalized” value (H1993 cells [12])?
Answer: The value was 8×10^5 molecules/cell.

Question: What about the “uptake at low temperature” value ([13]; 4° C.) of the same substance?
Answer: The value was “greatly reduced”.

Question: What about the rate of uptake ([13]; at 6 hours, 100 nM dye-labeled peptide) of the same substance?
Answer: The rate of uptake was “not saturated”.

Question: What about the intracellular concentrations ([13]; corresponding to molecules/cell from H358 to H1993) of the same substance?
Answer: The intracellular concentrations was 100 to 800 nM.

Question: What about the internalization ([13]; three human NSCLC cell lines) of the same substance?
Answer: The internalization was “is internalized”.

Question: What about the “localization in LLC1 tumor” value (LLC1 tumors; listed as SRI_MGS2_V2) of the same substance?
Answer: Its value is “successfully localized”.

Question: What about the “localization in LLC1 tumor” value (LLC1 tumors; listed as SRI_MGS5_V5) of the same substance?
Answer: Its value is “homes to LLC1 tumors”.

Question: And the “accumulation in autophagic vesicles” value (LLC1 cells [14])?
Answer: The value was “Comparable results”.

Question: What about the “functional presentation of antigenic peptide” value [15] of the same substance?
Answer: The value was “Mediates Functional Presentation”.

Question: Which immunogenic response [16] does the source give for ILPGQDLQYV [H516] here?
Answer: The immunogenic response was “highly immunogenic”.

Question: Which biophysical properties [17] does the source give for SLSAYIIRV [H3L, SLSAYIIRV] here?
Answer: Its biophysical properties is “hydrophobic, difficult to purify, and unstable”.

Question: Which biophysical properties [17] does the source give for SLWGSLLML [C166, SLWGSLLML] here?
Answer: Its biophysical properties is “hydrophobic, difficult to purify, and unstable”.

Question: For “SMYRVFEVGV [H250, measles virus hemagglutinin peptide, HLA class I (A*02:01) restricted]”, which immunogenic response [16] is on record?
Answer: The immunogenic response was “strong CD8 specific IFNγ response; also recorded: strong CD8 specific IFNy response”.

Question: What does the source list for “SRI_MGS5_V1: parental tumor-targeting peptide, dimer comprising LQWRRDDNVHNFGVWARYRL (SEQ ID NO:2) (also: dimer) [reference compound]”?
Answer: off-tumor signal in vivo ([6]; 24 H): significant signal along the dorsal side; tumor accumulation / tumor targeting [6]: accumulate specifically; extent of tumor uptake, V1 versus V2 ([6]; mouse, in vivo): roughly the same degree; time to localization at the tumor site ([6]; mouse, in vivo): ≤ 24 h; tumor signal maintained ([6]; mouse, in vivo): 72 h; accumulation in cancer cells (cancer cells): selectively accumulate; binding to normal human bronchial epithelial cells [18]: limited binding
